Measured values taken from ChEMBL document CHEMBL6103551 (Bioorg Med Chem Lett, 2025).

Conditions: mouse, microsomes, 1 h
Description: Metabolic stability in mouse liver microsomes assessed as reduction in NADPH incubated for 60 mins by fluorescence based assay relative to control

Stability: Stable
Structure (SMILES): CCOC(=O)N1CCC(NC(=S)Nc2cc(Cl)cc(Cl)c2)CC1
